Experimental data reported in patent US20190134005A1 (BioMarin Pharmaceutical Inc., priority 2016, published 2019).
Like-named read-outs stand apart in the source and are kept apart here.

Molecular target: T1, human CGT (Homo sapiens, UniProt Q16880)
T1 sequence (Q16880 21-541): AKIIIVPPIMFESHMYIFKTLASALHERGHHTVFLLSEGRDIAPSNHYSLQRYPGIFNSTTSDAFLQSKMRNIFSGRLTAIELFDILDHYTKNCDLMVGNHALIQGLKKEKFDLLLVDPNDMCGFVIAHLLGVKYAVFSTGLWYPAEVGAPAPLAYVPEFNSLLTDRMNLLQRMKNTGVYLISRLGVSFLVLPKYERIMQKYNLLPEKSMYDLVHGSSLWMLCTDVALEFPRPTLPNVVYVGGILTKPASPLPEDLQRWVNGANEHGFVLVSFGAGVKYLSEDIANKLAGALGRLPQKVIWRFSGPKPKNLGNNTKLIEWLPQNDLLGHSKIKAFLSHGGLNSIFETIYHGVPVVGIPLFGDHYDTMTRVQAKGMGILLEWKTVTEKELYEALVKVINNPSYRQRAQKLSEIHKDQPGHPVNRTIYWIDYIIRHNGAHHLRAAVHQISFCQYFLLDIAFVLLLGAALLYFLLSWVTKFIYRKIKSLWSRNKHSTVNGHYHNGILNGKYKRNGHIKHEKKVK
Test: Assay 1: CGT Enzymatic Assay (RapidFire/MS/MS, 0.01% Tween 80)
Assay type: biochemical
Settings: Table 1, Compounds of Formula (I) and Formula (II), CGT enzymatic assay, read-out: IC50

[1] = C6-NBD-dihydro-galactosylceramide readout

| SMILES | IC50 | IC50 [1] |
| --- | --- | --- |
| CC(C)C1(c2cccc(C#N)c2)C(O)N(c2ccc(Br)cc2)C(=O)N1c1ccc(Br)cc1 (centres unmarked) [Example 232, 3-(1,3-bis(4-bromophenyl)-5-hydroxy-4-isopropyl-2-oxoimidazolidin-4-yl)benzonitrile] | 1000 to 10000 nM | – |
| CCCC1N(c2ccc(Br)cc2)C(=O)N(c2ccc(Br)cc2)C1(O)c1cccc(CC)c1 (centres unmarked) [Compound 88, 1,3-bis(4-bromophenyl)-4-(3-ethylphenyl)-4-hydroxy-5-propylimidazolidin-2-one] | < 1000 nM | – |
| Cc1ccc(N2C(=O)N(c3ccc(Cl)cc3)C(O)(c3cccc(OC(F)(F)F)c3)C23CCC3)cc1 (centres unmarked) [Example 315, 7-(4-chlorophenyl)-8-hydroxy-5-(p-tolyl)-8-(3-(trifluoromethoxy)phenyl)-5,7-diazaspiro[3.4]octan-6-one] | – | < 1000 nM |
| CCC[C@H]1N(c2ccc(Cl)cc2)C(=O)N(c2ccc(Cl)cc2)C1(O)c1cccc(Cl)c1 (stereo partly drawn) [Compound 114-2, (5R)-4-(3-chlorophenyl)-1,3-bis(4-chlorophenyl)-4-hydroxy-5-propylimidazolidin-2-one] | < 1000 nM | – |
| CCC[C@@H]1N(c2ccc(Br)cc2)C(=O)N(c2ccc(Br)cc2)C1(O)c1cccc(Cl)c1 (stereo partly drawn) [Compound 119-1, (5S)-1,3-bis(4-bromophenyl)-4-(3-chlorophenyl)-4-hydroxy-5-propylimidazolidin-2-one] | < 1000 nM | – |
| O=C1N(c2ccc(Br)cc2)C(=O)C(O)(c2ccc(OC3CCCCC3)cc2)N1c1ccc(Br)cc1 (centres unmarked) [Example 169, 1,3-bis(4-bromophenyl)-5-(4-(cyclohexyloxy)phenyl)-5-hydroxyimidazolidine-2,4-dione] | > 50000 nM | – |
| O=C1N(c2ccc(Cl)cc2)CC(O)(c2cccc(F)c2)N1c1ccc(Cl)cc1 (centres unmarked) [Compound 64, 1,3-bis(4-chlorophenyl)-4-(3-fluorophenyl)-4-hydroxyimidazolidin-2-one] | 1000 to 10000 nM | – |
| CCc1c(-c2cccc(OC(F)(F)F)c2)n(-c2ccc(Cl)cc2)c(=O)n1-c1ccc(Cl)cc1 [Compound 247, 1,3-bis(4-chlorophenyl)-4-ethyl-5-(3-(trifluoromethoxy)phenyl)-1,3-dihydro-2H-imidazol-2-one] | < 1000 nM | – |
| N#Cc1ccc(N2C(=O)N(c3ccc(Cl)cc3)C(O)(c3cccc(OC(F)(F)F)c3)C23COC3)cc1 (centres unmarked) [Compound 276, 4-(7-(4-chlorophenyl)-8-hydroxy-6-oxo-8-(3-(trifluoromethoxy)phenyl)-2-oxa-5,7-diazaspiro[3.4]octan-5-yl)benzonitrile] | – | < 1000 nM |
| O=C1N(c2ccc(Cl)cc2)[C@@H]([C@@H]2CCCO2)C(O)(c2cccc(Cl)c2)N1c1ccc(Cl)cc1 (single isomer, unassigned) [Compound 117-1] | 1000 to 10000 nM | – |
| COC[C@]1(C)N(c2ccc(Cl)cc2)C(=O)N(c2ccc(Cl)cc2)[C@@]1(O)c1cccc(OC(F)(F)F)c1 [Compound 296-3, (4R,5S)-1,3-bis(4-chlorophenyl)-4-hydroxy-5-(methoxymethyl)-5-methyl-4-(3-(trifluoromethoxy)phenyl)imidazolidin-2-one] | – | 1000 to 10000 nM |
| O=C1N(c2ccc(F)cc2)CC(O)(c2ccccc2)N1c1ccc(F)cc1 (centres unmarked) [Example 11, 1,3-bis(4-fluorophenyl)-4-hydroxy-4-phenylimidazolidin-2-one] | > 50000 nM | – |
| C[C@@]1(C(F)(F)F)N(c2ccc(Cl)cc2)C(=O)N(c2ccc(Cl)cc2)C1(O)c1cccc(C#N)c1 (single isomer, unassigned) [Example 177-2] | 1000 to 10000 nM | – |
| CC(=O)c1cccc(-c2c(C)n(-c3ccc(Cl)cc3)c(=O)n2-c2ccc(Cl)cc2)c1 [Compound 253, 4-(3-acetylphenyl)-1,3-bis(4-chlorophenyl)-5-methyl-1,3-dihydro-2H-imidazol-2-one] | 1000 to 10000 nM | – |
| Cc1ccc(N2C(=O)N(c3ccc(Cl)cc3)C(O)(c3cccc(OC(F)(F)F)c3)C2(C)C)cc1 (centres unmarked) [Example 318, 1-(4-chlorophenyl)-5-hydroxy-4,4-dimethyl-3-(p-tolyl)-5-(3-(trifluoromethoxy)phenyl)imidazolidin-2-one] | – | < 1000 nM |
| CCC[C@@H]1N(c2ccc(Br)cc2)C(=O)N(c2ccc(Br)cc2)C1(O)c1cccc(OC(F)(F)F)c1 (stereo partly drawn) [Compound 112-1, (5S)-1,3-bis(4-bromophenyl)-4-hydroxy-5-propyl-4-(3-(trifluoromethoxy)phenyl)imidazolidin-2-one] | < 1000 nM | – |
| C#Cc1cccc(C2(O)[C@H](C)N(c3ccc(Cl)cc3)C(=O)N2c2ccc(Cl)cc2)c1 (stereo partly drawn) [Compound 93-1, (5S)-1,3-bis(4-chlorophenyl)-4-(3-ethynylphenyl)-4-hydroxy-5-methylimidazolidin-2-one] | < 1000 nM | – |
| O=C1N(c2ccc(Cl)cc2)C2(COC2)C(O)(c2sccc2Br)N1c1ccc(Cl)cc1 (centres unmarked) [Example 310, 8-(3-bromothiophen-2-yl)-5,7-bis(4-chlorophenyl)-8-hydroxy-2-oxa-5,7-diazaspiro[3.4]octan-6-one] | – | < 1000 nM |

| SMILES | IC50 | IC50 [1] |
| --- | --- | --- |
| CCc1cccc(C2(O)C(C)N(c3ccc(Cl)cc3)C(=O)N2c2ccc(Cl)cc2)c1 (centres unmarked) [Compound 69, 1,3-bis(4-chlorophenyl)-4-(3-ethylphenyl)-4-hydroxy-5-methylimidazolidin-2-one] | < 1000 nM | – |
| N#Cc1cccc(C2(O)N(c3ccc(Cl)cc3)C(=O)N(c3ccc(Cl)cc3)C23CC(F)(F)C3)c1 (centres unmarked) [Compound 305, 3-(5,7-bis(4-chlorophenyl)-2,2-difluoro-8-hydroxy-6-oxo-5,7-diazaspiro[3.4]octan-8-yl)benzonitrile] | – | < 1000 nM |
| CCC[C@]1(C)N(c2ccc(Cl)cc2)C(=O)N(c2ccc(Cl)cc2)C1(O)c1cccc(OC(F)(F)F)c1 (single isomer, unassigned) [Example 170-2] | < 1000 nM | – |
| O=C1N(c2ccc(Br)cc2)C(=O)C(O)(c2ccc(-c3ccc(F)cc3)cc2)N1c1ccc(Br)cc1 (centres unmarked) [Example 178, 1,3-bis(4-bromophenyl)-5-(4′-fluoro-[1,1′-biphenyl]-4-yl)-5-hydroxyimidazolidine-2,4-dione] | > 50000 nM | – |
| O=C1N(c2ccccc2)C(=O)C(O)(c2ccc(OC3CC3)cc2)N1c1ccccc1 (centres unmarked) [Compound 156, 5-(4-cyclopropoxyphenyl)-5-hydroxy-1,3-diphenylimidazolidine-2,4-dione] | > 50000 nM | – |
| Cc1csc(-c2c(C)n(-c3ccc(Br)cc3)c(=O)n2-c2ccc(Br)cc2)c1 [Compound 266, 1,3-bis(4-bromophenyl)-4-methyl-5-(4-methylthiophen-2-yl)-1,3-dihydro-2H-imidazol-2-one] | 1000 to 10000 nM | – |
| COC[C@]1(C)N(c2ccc(Cl)cc2)C(=O)N(c2ccc(Cl)cc2)[C@]1(O)c1cccc(OC(F)(F)F)c1 [Compound 296-2, (4S,5S)-1,3-bis(4-chlorophenyl)-4-hydroxy-5-(methoxymethyl)-5-methyl-4-(3-(trifluoromethoxy)phenyl)imidazolidin-2-one] | – | < 1000 nM |
| CC[C@H]1N(c2ccc(Br)cc2)C(=O)N(c2ccc(Br)cc2)C1(O)c1cccc(C)c1 (stereo partly drawn) [Compound 76-2, (5R)-1,3-bis(4-bromophenyl)-5-ethyl-4-hydroxy-4-(m-tolyl)imidazolidin-2-one] | < 1000 nM | – |
| Cc1cc(C)cc(C2(O)CN(c3ccc(Br)cc3)C(=O)N2c2ccc(Br)cc2)c1 (centres unmarked) [Example 33, 1,3-bis(4-bromophenyl)-4-(3,5-dimethylphenyl)-4-hydroxyimidazolidin-2-one] | 10000 to 50000 nM | – |
| C[C@@H]1N(c2ccc(Cl)cc2)C(=O)N(c2ccc(Cl)cc2)C1(O)c1cccc(C(F)(F)F)c1 (single isomer, unassigned) [Compound 77-1] | < 1000 nM | – |
| N#Cc1cc(C#N)cc(C2(O)N(c3ccc(Cl)cc3)C(=O)N(c3ccc(Cl)cc3)C23COC3)c1 (centres unmarked) [Compound 306, 5-(5,7-bis(4-chlorophenyl)-8-hydroxy-6-oxo-2-oxa-5,7-diazaspiro[3.4]octan-8-yl)isophthalonitrile] | – | < 1000 nM |
| CC1(C)N(c2ccc(Cl)cc2)C(=O)N(c2ccc(Cl)cc2)C1(O)c1cccc(OC(F)(F)F)c1 (centres unmarked) [Compound 133, 1,3-bis(4-chlorophenyl)-4-hydroxy-5,5-dimethyl-4-(3-(trifluoromethoxy)phenyl)imidazolidin-2-one] | < 1000 nM | – |
| Cc1cccc(C2(O)[C@H](C)N(c3ccc(Br)cc3)C(=O)N2c2ccc(Br)cc2)c1 (some centres unmarked) [Example 29-1] | < 1000 nM | – |
| O=C1N(c2ccc(Br)cc2)CC(O)(c2nc3ccccc3s2)N1c1ccc(Br)cc1 (centres unmarked) [Example 10, 4-(benzo[d]thiazol-2-yl)-1,3-bis(4-bromophenyl)-4-hydroxyimidazolidin-2-one] | > 50000 nM | – |
| CCC1N(c2ccc(Br)cc2)C(=O)N(c2ccc(Br)cc2)C1(O)c1cccc(OC(F)(F)F)c1 (stereo in doubt) [Compound 83-1, (5S)-1,3-bis(4-bromophenyl)-5-ethyl-4-hydroxy-4-(3-(trifluoromethoxy)phenyl)imidazolidin-2-one] | < 1000 nM | – |
| CCC[C@H]1N(c2ccc(Br)cc2)C(=O)N(c2ccc(Br)cc2)C1(O)c1cccc(OC(F)(F)F)c1 (stereo partly drawn) [Compound 112-2, (5R)-1,3-bis(4-bromophenyl)-4-hydroxy-5-propyl-4-(3-(trifluoromethoxy)phenyl)imidazolidin-2-one] | < 1000 nM | – |
| O=C1N(c2ccc(Br)cc2)CC(O)(c2cccc(Cl)c2)N1c1ccc(Br)cc1 (centres unmarked) [Example 35, 1,3-bis(4-bromophenyl)-4-(3-chlorophenyl)-4-hydroxyimidazolidin-2-one] | 1000 to 10000 nM | – |
